# Source: PubChem BioAssay AID330 (DTP/NCI, 2004)
# Where “and” joins values, the source holds several entries; their conditions need not be identical. Equal values may be shown once. Inconclusive results and toxic doses are left out. Square brackets hold non-standard residues; d marks the D form. Peptide text beside a SMILES is read from it. ξ: configuration not given here. ξA = CC(N)C(=O)O
# Test system: P388 leukemia ip, CD2F1 mice, survival T/C
# Assay: NCI In Vivo Anticancer Drug Screen. Data for tumor model P388 Leukemia (intraperitoneal) in CD2F1 (CDF1) mice
# Settings: endpoint: median survival time, higher = longer survival
# Outline: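 Mice carrying the transplanted tumor received test compound or vehicle. Survival was recorded in each group, and the value is the treated-group measurement divided by that of the vehicle-treated control group.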
# [1] = dose: 50.0 mg/kg/injection, schedule: Q01DX009 (ip), vehicle: saline with Tween-80
# [2] = dose: 100.0 mg/kg/injection, schedule: Q01DX009 (ip), vehicle: saline with Tween-80
# [3] = dose: 200.0 mg/kg/injection, schedule: Q01DX009 (ip), vehicle: saline with Tween-80
# [4] = dose: 50.0 mg/kg/injection, schedule: Q01DX005 (ip), vehicle: Klucel (hydroxypropylcellulose) (HPC)
# [5] = dose: 100.0 mg/kg/injection, schedule: Q01DX005 (ip), vehicle: Klucel (hydroxypropylcellulose) (HPC)
# [6] = dose: 200.0 mg/kg/injection, schedule: Q01DX005 (ip), vehicle: Klucel (hydroxypropylcellulose) (HPC)
# [7] = dose: 6.0 mg/kg/injection, schedule: Q01DX005 (ip), vehicle: Klucel (hydroxypropylcellulose) (HPC)
# [8] = dose: 12.0 mg/kg/injection, schedule: Q01DX005 (ip), vehicle: Klucel (hydroxypropylcellulose) (HPC)
# [9] = dose: 25.0 mg/kg/injection, schedule: Q01DX005 (ip), vehicle: Klucel (hydroxypropylcellulose) (HPC)
# [10] = dose: 50.0 mg/kg/injection, schedule: Q01DX005 (ip), vehicle: saline
# [11] = dose: 100.0 mg/kg/injection, schedule: Q01DX005 (ip), vehicle: saline
# [12] = dose: 200.0 mg/kg/injection, schedule: Q01DX005 (ip), vehicle: saline
# [13] = dose: 60.0 mg/kg/injection, schedule: Q01DX005 (ip), vehicle: Klucel (hydroxypropylcellulose) (HPC)
# [14] = dose: 120.0 mg/kg/injection, schedule: Q01DX005 (ip), vehicle: Klucel (hydroxypropylcellulose) (HPC)
# [15] = dose: 240.0 mg/kg/injection, schedule: Q01DX005 (ip), vehicle: Klucel (hydroxypropylcellulose) (HPC)
# [16] = dose: 15.0 mg/kg/injection, schedule: Q01DX005 (ip), vehicle: saline with Tween-80
# [17] = dose: 30.0 mg/kg/injection, schedule: Q01DX005 (ip), vehicle: saline with Tween-80
# [18] = dose: 60.0 mg/kg/injection, schedule: Q01DX005 (ip), vehicle: saline with Tween-80
# [19] = dose: 50.0 mg/kg/injection, schedule: Q01DX009 (ip), vehicle: saline
# [20] = dose: 100.0 mg/kg/injection, schedule: Q01DX009 (ip), vehicle: saline
# [21] = dose: 200.0 mg/kg/injection, schedule: Q01DX009 (ip), vehicle: saline
# [22] = dose: 120.0 mg/kg/injection, schedule: Q01DX005 (ip), vehicle: saline with Tween-80
# [23] = dose: 240.0 mg/kg/injection, schedule: Q01DX005 (ip), vehicle: saline with Tween-80
smiles,measurement,setting,value
Cc1ccc2c(Nc3ccc(NS(C)(=O)=O)cc3)c3ccccc3nc2c1C,T/C,"dose: 0.59 mg/kg/injection, schedule: Q01DX009 (ip), vehicle: saline with Tween-80",110 % of control
same,T/C,"dose: 5.0 mg/kg/injection, schedule: Q01DX009 (ip), vehicle: other",154 % of control
same,T/C,"dose: 10.0 mg/kg/injection, schedule: Q01DX009 (ip), vehicle: other",165 % of control
same,T/C,"dose: 19.4 mg/kg/injection, schedule: Q04DX003 (ip), vehicle: water",123 % of control
same,T/C,"dose: 20.0 mg/kg/injection, schedule: Q01DX009 (ip), vehicle: other",197 % of control
same,T/C,"dose: 22.0 mg/kg/injection, schedule: Q04DX003 (ip), vehicle: saline with Tween-80",154 % of control
same,T/C,"dose: 33.0 mg/kg/injection, schedule: Q04DX003 (ip), vehicle: saline with Tween-80",168 % of control
same,T/C,"dose: 75.0 mg/kg/injection, schedule: Q04DX003 (ip), vehicle: saline with Tween-80",195 % of control and 218 % of control
same,T/C,"dose: 90.0 mg/kg/injection, schedule: Q04DX003 (ip), vehicle: water",155 % of control
same,T/C,"dose: 150.0 mg/kg/injection, schedule: Q04DX003 (ip), vehicle: saline with Tween-80",254 % of control
same,T/C,"dose: 300.0 mg/kg/injection, schedule: Q04DX003 (ip), vehicle: saline with Tween-80",86 % of control
COC(=O)/C=C(\C(=O)OC)c1ccccc1C(C(=O)OC)c1ccccc1CC(=O)OC (centres undefined),T/C,[1],108 % of control
same,T/C,[2],106 % of control
same,T/C,[3],108 % of control
CC(NC(=O)/C=C/c1ccco1)C(=O)NC(Cc1ccccc1)C(N)=O (centres undefined),T/C,[4],104 % of control
same,T/C,[5],106 % of control
same,T/C,[6],104 % of control
COc1ccc(C(=O)c2ccccc2)c(C(=O)O)c1,T/C,[4],101 % of control
same,T/C,[5],97 % of control
same,T/C,[6],104 % of control
CCN(CC)CCCC(Nc1c2ccc(Cl)cc2nc2ccc(OC)cc12)c1cccc2ccccc12 (centres undefined),T/C,[7],103 % of control
same,T/C,[8],106 % of control
same,T/C,[9],106 % of control
CC(CCO)CCC(Br)C(C)(C)Br (centres undefined),T/C,[10],103 % of control
same,T/C,[11],105 % of control
same,T/C,[12],100 % of control
COc1cccc(/C=N/N(C)c2c([N+](=O)[O-])cc(C(F)(F)F)cc2[N+](=O)[O-])c1O,T/C,[13],93 % of control
same,T/C,[14],92 % of control
same,T/C,[15],87 % of control
COc1cc2c[n+](C)c3c4cc(OC)c(OC)cc4c(OC)cc3c2cc1OC,T/C,"dose: 12.5 mg/kg/injection, schedule: Q01DX005 (ip), vehicle: Klucel (hydroxypropylcellulose) (HPC)",118 % of control
same,T/C,"dose: 25.0 mg/kg/injection, schedule: Q01DX005 (ip), vehicle: saline",109 % of control
same,T/C,[4],112 % of control
same,T/C,[5],118 % of control
same,T/C,[11],120 % of control
CCCCCCCCCCCCCCCCOc1ccc(/C=N/Nc2ccccc2)cc1OC,T/C,[1],88 % of control
same,T/C,[2],93 % of control
C/C(=N\NC(=S)N1CCC(C)CC1)c1nccnc1C,T/C,[7],108 % of control
same,T/C,[8],106 % of control
same,T/C,[9],106 % of control
O=C1CSc2nc3c(I)cc(I)cc3c(=O)n21,T/C,[4],101 % of control
same,T/C,[5],100 % of control
same,T/C,[6],98 % of control
CC(NC(=O)CNC(=O)CNC(=O)CNC(=O)CN)C(=O)O (centres undefined) (H-GGGG[ξA]-OH),T/C,[10],100 % of control
same,T/C,[11],103 % of control
same,T/C,[12],101 % of control
Cc1cc(F)nc(F)n1,T/C,[10],98 % of control
same,T/C,[11],98 % of control
COc1ccc(/C=C2\C(=O)C(c3ccccc3)N(c3ccccc3)C2=O)cc1 (centres undefined),T/C,"dose: 12.5 mg/kg/injection, schedule: Q04DX002 (ip), vehicle: saline with Tween-80",91 % of control
same,T/C,"dose: 25.0 mg/kg/injection, schedule: Q04DX002 (ip), vehicle: saline with Tween-80",92 % of control
same,T/C,"dose: 50.0 mg/kg/injection, schedule: Q04DX002 (ip), vehicle: saline with Tween-80",98 % of control
NC12CCC(N)(c3ccccc31)c1ccccc12,T/C,[13],93 % of control
same,T/C,[14],98 % of control
same,T/C,[15],98 % of control
COc1c(C(C)C)cc2c(c1OC)C13CCCC(C)(C)C1C(OC3=O)C2NC(=O)CCN(C)C (centres undefined),T/C,"dose: 25.0 mg/kg/injection, schedule: Q01DX009 (ip), vehicle: Klucel (hydroxypropylcellulose) (HPC)",97 % of control
same,T/C,"dose: 50.0 mg/kg/injection, schedule: Q01DX009 (ip), vehicle: Klucel (hydroxypropylcellulose) (HPC)",98 % of control
same,T/C,"dose: 100.0 mg/kg/injection, schedule: Q01DX009 (ip), vehicle: Klucel (hydroxypropylcellulose) (HPC)",90 % of control
CSC1=Nc2cccnc2Nc2cscc21,T/C,[16],102 % of control
same,T/C,[17],98 % of control
same,T/C,[18],112 % of control and 94 % of control
CC1(c2ccccn2)OCCO1,T/C,[19],97 % of control
same,T/C,[20],104 % of control
same,T/C,[21],108 % of control
CN1C(=O)CCC1c1nc2ccccc2[nH]1 (centres undefined),T/C,[18],102 % of control
same,T/C,[22],101 % of control
same,T/C,[23],96 % of control
CN(C)CC[CH2][Sn]([CH3])([c]1ccccc1)[c]1ccccc1,T/C,"dose: 6.25 mg/kg/injection, schedule: Q01DX009 (ip), vehicle: suspension in saline",88 % of control
same,T/C,"dose: 12.5 mg/kg/injection, schedule: Q01DX009 (ip), vehicle: suspension in saline",101 % of control
same,T/C,"dose: 25.0 mg/kg/injection, schedule: Q01DX009 (ip), vehicle: suspension in saline",103 % of control
CC(C)(C)OC(=O)NC(CC(=O)O)C(=O)O (centres undefined),T/C,[19],111 % of control
same,T/C,[20],93 % of control
same,T/C,[21],104 % of control
O=C1C(N=Nc2ccc(S(=O)(=O)Nc3ccccn3)cc2)C(=O)N(c2ccccc2)C(=S)N1c1ccccc1,T/C,"dose: 60.0 mg/kg/injection, schedule: Q01DX005 (ip), vehicle: saline",95 % of control
same,T/C,"dose: 120.0 mg/kg/injection, schedule: Q01DX005 (ip), vehicle: saline",104 % of control
same,T/C,"dose: 240.0 mg/kg/injection, schedule: Q01DX005 (ip), vehicle: saline",100 % of control
CC1=CC(C)(C)Nc2ccc(OC(=O)/C=C(C)/C=C/C=C(C)/C=C/C3=C(C)CCCC3(C)C)cc21,T/C,[18],94 % of control
same,T/C,[22],91 % of control
same,T/C,[23],94 % of control
Cc1ccc(C(=O)Nc2ccncc2)cc1,T/C,"dose: 6.25 mg/kg/injection, schedule: Q01DX009 (ip), vehicle: Klucel (hydroxypropylcellulose) (HPC)",109 % of control
same,T/C,"dose: 12.5 mg/kg/injection, schedule: Q01DX009 (ip), vehicle: Klucel (hydroxypropylcellulose) (HPC)",99 % of control
NCCCCCC(CCN)SCC1OC(n2cnc3c(N)ncnc32)C(O)C1O (centres undefined),T/C,[16],109 % of control
same,T/C,[17],103 % of control
same,T/C,[18],96 % of control
O=C1CCCCCCCCCCC1Br (centres undefined),T/C,[2],100 % of control
same,T/C,[3],99 % of control
same,T/C,"dose: 400.0 mg/kg/injection, schedule: Q01DX009 (ip), vehicle: saline with Tween-80",105 % of control
C[Si](C)(C)Cn1ccc(=O)[nH]c1=O,T/C,"dose: 60.0 mg/kg/injection, schedule: Q01DX005 (ip), vehicle: Klucel + Tween-80",94 % of control
same,T/C,"dose: 120.0 mg/kg/injection, schedule: Q01DX005 (ip), vehicle: Klucel + Tween-80",92 % of control
same,T/C,"dose: 240.0 mg/kg/injection, schedule: Q01DX005 (ip), vehicle: Klucel + Tween-80",98 % of control
N#Cc1ccc(NC(=O)Nc2nncs2)cc1,T/C,"dose: 12.5 mg/kg/injection, schedule: Q01DX009 (ip), vehicle: distilled water + Tween-80",115 % of control and 116 % of control
same,T/C,"dose: 25.0 mg/kg/injection, schedule: Q01DX009 (ip), vehicle: distilled water + Tween-80",122 % of control
same,T/C,"dose: 200.0 mg/kg/injection, schedule: Q01DX009 (ip), vehicle: distilled water + Tween-80",104 % of control
NC1=C(O)C(=O)C(c2cccc(O)c2)O1 (centres undefined),T/C,[18],103 % of control
same,T/C,[22],100 % of control
same,T/C,[23],103 % of control
